Experimental data published in patent publication US20130254944A1, “Herbicide Tolerant Soybeans and Methods of Use” (PIONEER HI BRED INTERNATIONAL INC, priority 2012, published 2013).

How the values were obtained:
Type in all cases: in vivo
wild type soybean = experiment: Greenhouse postemergence test of ALS-inhibiting herbicides, wild type soybean
Description: (§1) Soybean lines having wild type als1 & 2 genes, the Als1 mutation, the Als2 mutation, or both the Als1 and Als2 mutations were evaluated for their response to various herbicides. Two seeds from each line were planted into 4-inch pots containing Redi-Earth potting mix (Sun Gro Horticulture Canada Ltd. 52130 RR65, Seba Beach, Alberta TOE 2B0), with two replications planted for each treatment. Pots were placed in flats at 15 pots/flat, and the resulting plants were grown in a greenhouse environment supplemented with lighting (16 hr photoperiod) for the duration of the test. Selected herbicides representing the mode of action that inhibits the acetolactate synthase enzyme, also known as the acetohydroxyacid synthase enzyme, were applied postemergence to soybean when soybean plants were at the V2 growth stage, which is the stage at which the first two trifoliolate leaves were expanded.
(§2) Eleven active ingredients representing the five chemical families with herbicidal activity on the acetolactate synthase enzyme were tested. These herbicides can cause a phytotoxic response in wild type soybean plants. The five chemical families tested were sulfonylaminocarbonyltriazolinone (also known as triazolinone), imidazolinone, sulfonylurea, pyrimidinylthiobenzoate, and triazolopyrimidine. Application rates ranged from 0.5 times to eight times the currently labeled application rate for each active ingredient with spray application volume at 30 gallons/acre. The application rates tested were 0.5×, 1×, 2×, 4× and 8× the label rate for each herbicide. Herbicidal active ingredients were applied as formulated materials dispersed in water containing 0.25% nonionic surfactant (Trend® 90).
(§3) The test was evaluated by visually scoring plant phenotype 14 days after the herbicides were applied. Controls consisted of soybean plants of the same variety that received no herbicide treatments for each of all the varieties tested. Soybean response was recorded on a zero to 100 visual scale in which zero is no phytotoxic response and 100 is plant death fourteen days after the herbicides were applied. Soybean response (percent phytotoxicity) to postemergence applications of herbicides inhibiting the acetolactate synthase enzyme test results are shown in Table 1.

[1] = system: soybean having the Als1 mutation; experiment: Greenhouse postemergence test of ALS-inhibiting herbicides, soybean with Als1 mutation; conditions: for Avg response (% phytotoxicity), Trait Als1: Table 2
Description: as §1, §2, §3
(§4) Results in Table 1 were evaluated using the isobole method for analyzing interactions. […] Here the biologically active agents that are being assessed for interaction (synergy) are gene mutations in soybean. The effectiveness of the genes in providing improved tolerance to ALS-inhibiting herbicides was assessed by applying increasing doses of herbicides to each soybean line with its mutation(s).
(§5) An isobole reduces a dose response surface in three dimensional space to a two dimensional plot by fixing a defined response level (e.g., 50% response). The isobole plot is a graph in the Cartesian plane with a straight line connecting the isoeffective rates of the individual components of the combination. This straight line represents expected responses for zero interactive combinations. The isoeffective rate used to create the isobole is often the EC50, the rate estimated to elicit 50% response, but other ECx values can be used. Since the isobole method is based on the potency of the components of the combination, an experimental design testing a range of rates expected to elicit the full range of responses (e.g., 0 to maximum response) is best. (Ferry et al. (2005) 2005 Conference on Applied Statistics in Agriculture Proceedings pp 33-50, Manhattan, Kans., Kansas State Univ.; Green and Streibig (1993) Herbicide Mixtures, pp 117-134 in Herbicide Bioassays, Streibig and Hudsk Eds, CRC, Boca Raton, Fla.).
(§6) Loglogistic dose response curves were fit to percent phytotoxicity response data using log 10 of dose (McCullagh and Nelder (1989) Generalized Linear Models, Chapman & Hall, London). Curves were fit using the logit link with normal errors. […]

[2] = system: soybean having the Als2 mutation; experiment: Greenhouse postemergence test of ALS-inhibiting herbicides, soybean with Als2 mutation; conditions: for Avg response (% phytotoxicity), Trait Als2: Table 2
Description: as §1, §2, §3, §4, §5, §6

[3] = system: soybean having both the Als1 and Als2 mutations; experiment: Greenhouse postemergence test of ALS-inhibiting herbicides and isobole analysis, soybean with Als1 and Als2 mutations; conditions: for Avg response (% phytotoxicity), Trait Als1 + Als2: Table 2
Description: as §1, §2, §3, §4, §5, §6

[4] = 35 g ai/ha postemergence at V2, scored 14 days after application
[5] = 70 g ai/ha postemergence at V2, scored 14 days after application
[6] = 140 g ai/ha postemergence at V2, scored 14 days after application
[7] = 280 g ai/ha postemergence at V2, scored 14 days after application
[8] = 560 g ai/ha postemergence at V2, scored 14 days after application
[9] = 8.75 g ai/ha postemergence at V2, scored 14 days after application
[10] = 17.5 g ai/ha postemergence at V2, scored 14 days after application
[11] = rate of herbicide estimated to cause 10% phytotoxic response, loglogistic fit

COc1cc(OC)nc(Sc2cccc(Cl)c2C(=O)O)n1 [Pyrithiobac sodium]
Soybean response (percent phytotoxicity), Wild type (wild type soybean; [4]): 70%
Soybean response (percent phytotoxicity), Wild type (wild type soybean; [5]): 95%
Soybean response (percent phytotoxicity), Wild type (wild type soybean; [6]): 98%
Soybean response (percent phytotoxicity), Wild type (wild type soybean; [7]): 98%
Soybean response (percent phytotoxicity), Wild type (wild type soybean; [8]): 98%
Soybean response (percent phytotoxicity), Als1 [1, 4]: 20%
Avg response (% phytotoxicity), Trait Als1 ([1]; 35 g ai/ha): 20%
Soybean response (percent phytotoxicity), Als1 [1, 5]: 50%
Avg response (% phytotoxicity), Trait Als1 ([1]; 70 g ai/ha): 50%
Soybean response (percent phytotoxicity), Als1 [1, 6]: 70%
Avg response (% phytotoxicity), Trait Als1 ([1]; 140 g ai/ha): 70%
Soybean response (percent phytotoxicity), Als1 [1, 7]: 98%
Avg response (% phytotoxicity), Trait Als1 ([1]; 280 g ai/ha): 98%
Soybean response (percent phytotoxicity), Als1 [1, 8]: 97%
Avg response (% phytotoxicity), Trait Als1 ([1]; 560 g ai/ha): 96.5%
Soybean response (percent phytotoxicity), Als2 [2, 4]: 20%
Avg response (% phytotoxicity), Trait Als2 ([2]; 35 g ai/ha): 40%
Soybean response (percent phytotoxicity), Als2 [2, 5]: 30%
Avg response (% phytotoxicity), Trait Als2 ([2]; 70 g ai/ha): 60%
Soybean response (percent phytotoxicity), Als2 [2, 6]: 40%
Avg response (% phytotoxicity), Trait Als2 ([2]; 140 g ai/ha): 80%
Soybean response (percent phytotoxicity), Als2 [2, 7]: 45%
Avg response (% phytotoxicity), Trait Als2 ([2]; 280 g ai/ha): 92.5%
Soybean response (percent phytotoxicity), Als2 [2, 8]: 49%
Avg response (% phytotoxicity), Trait Als2 ([2]; 560 g ai/ha): 98%
Soybean response (percent phytotoxicity), Als1 + Als2 [3, 4]: 0%
Avg response (% phytotoxicity), Trait Als1 + Als2 ([3]; 35 g ai/ha): 0%
Soybean response (percent phytotoxicity), Als1 + Als2 [3, 5]: 5%
Avg response (% phytotoxicity), Trait Als1 + Als2 ([3]; 70 g ai/ha): 5%
Soybean response (percent phytotoxicity), Als1 + Als2 [3, 6]: 25%
Avg response (% phytotoxicity), Trait Als1 + Als2 ([3]; 140 g ai/ha): 25%
Soybean response (percent phytotoxicity), Als1 + Als2 [3, 7]: 45%
Avg response (% phytotoxicity), Trait Als1 + Als2 ([3]; 280 g ai/ha): 45%
Soybean response (percent phytotoxicity), Als1 + Als2 [3, 8]: 50%
Avg response (% phytotoxicity), Trait Als1 + Als2 ([3]; 560 g ai/ha): 50%

CCS(=O)(=O)c1cccnc1S(=O)(=O)NC(=O)Nc1nc(OC)cc(OC)n1 [Rimsulfuron]
Soybean response (percent phytotoxicity), Wild type (wild type soybean; [9]): 10%
Soybean response (percent phytotoxicity), Wild type (wild type soybean; [10]): 35%
Soybean response (percent phytotoxicity), Wild type (wild type soybean; [4]): 85%
Soybean response (percent phytotoxicity), Wild type (wild type soybean; [5]): 95%
Soybean response (percent phytotoxicity), Wild type (wild type soybean; [6]): 98%
Soybean response (percent phytotoxicity), Als1 [1, 9]: 0%
Avg response (% phytotoxicity), Trait Als1 ([1]; 8.75 g ai/ha): 0%
Soybean response (percent phytotoxicity), Als1 [1, 10]: 0%
Avg response (% phytotoxicity), Trait Als1 ([1]; 17.5 g ai/ha): 0%
Soybean response (percent phytotoxicity), Als1 [1, 4]: 20%
Avg response (% phytotoxicity), Trait Als1 ([1]; 35 g ai/ha): 20%
Soybean response (percent phytotoxicity), Als1 [1, 5]: 40%
Avg response (% phytotoxicity), Trait Als1 ([1]; 70 g ai/ha): 40%
Soybean response (percent phytotoxicity), Als1 [1, 6]: 80%
Avg response (% phytotoxicity), Trait Als1 ([1]; 140 g ai/ha): 80%
EC10, Als1 [1, 11]: 28.61 g ai/ha
phytotoxicity (in words), soybean containing only the Als1 gene ([1]; the higher doses): substantial phytotoxicity
Soybean response (percent phytotoxicity), Als2 [2, 9]: 0%
Avg response (% phytotoxicity), Trait Als2 ([2]; 8.75 g ai/ha): 0%
Soybean response (percent phytotoxicity), Als2 [2, 10]: 0%
Avg response (% phytotoxicity), Trait Als2 ([2]; 17.5 g ai/ha): 0%
Soybean response (percent phytotoxicity), Als2 [2, 4]: 20%
Avg response (% phytotoxicity), Trait Als2 ([2]; 35 g ai/ha): 20%
Soybean response (percent phytotoxicity), Als2 [2, 5]: 60%
Avg response (% phytotoxicity), Trait Als2 ([2]; 70 g ai/ha): 60%
Soybean response (percent phytotoxicity), Als2 [2, 6]: 80%
Avg response (% phytotoxicity), Trait Als2 ([2]; 140 g ai/ha): 80%
EC10, Als2 [2, 11]: 23.88 g ai/ha
phytotoxicity (in words), soybean containing only the Als2 gene ([2]; the higher doses): substantial phytotoxicity
Soybean response (percent phytotoxicity), Als1 + Als2 [3, 9]: 0%
Avg response (% phytotoxicity), Trait Als1 + Als2 ([3]; 8.75 g ai/ha): 0%
Soybean response (percent phytotoxicity), Als1 + Als2 [3, 10]: 0%
Avg response (% phytotoxicity), Trait Als1 + Als2 ([3]; 17.5 g ai/ha): 0%
Soybean response (percent phytotoxicity), Als1 + Als2 [3, 4]: 0%
Avg response (% phytotoxicity), Trait Als1 + Als2 ([3]; 35 g ai/ha): 0%
Soybean response (percent phytotoxicity), Als1 + Als2 [3, 5]: 10%
Avg response (% phytotoxicity), Trait Als1 + Als2 ([3]; 70 g ai/ha): 10%
Soybean response (percent phytotoxicity), Als1 + Als2 [3, 6]: 10%
Avg response (% phytotoxicity), Trait Als1 + Als2 ([3]; 140 g ai/ha): 10%
EC10, Als1 + Als2 [3, 11]: 123.22 g ai/ha
tolerance (in words), soybean containing both the Als1 and the Als2 genes ([3]; the higher doses): extremely tolerant
